The source of these data is US8846912B2, “Tartrate salts of quinazoline based EGFR inhibitors containing a zinc binding moiety” (Curis, Inc., priority 2007, dated 2014).

In data set [1] the target is HDAC. Description: HDAC fluorimetric enzyme assay (HeLa nuclear extract). The format is biochemical. The protocol:
HDAC inhibitors were screened using an HDAC fluorimetric assay kit (AK-500, Biomol, Plymouth Meeting, Pa.).
Each assay was setup as follows: Defrosted all kit components and kept on ice until use. […] Prepared dilutions of Trichostatin A (TSA, positive control) and tested compounds in assay buffer (5× of final concentration). Diluted Fluor de Lys™ Substrate in assay buffer to 100 uM (50 fold=2× final). Diluted Fluor de Lys™ developer concentrate 20-fold (e.g. 50 μl plus 950 μl Assay Buffer) in cold assay buffer. Second, diluted the 0.2 mM Trichostatin A 100-fold in the 1× Developer (e.g. 10 μl in 1 ml; final Trichostatin A concentration in the 1× Developer=2 μM; final concentration after addition to HDAC/Substrate reaction=1 μM). Added Assay buffer, diluted trichostatin A or test inhibitor to appropriate wells of the microtiter plate. Added diluted HeLa extract or other HDAC sample to all wells except for negative controls.

In data set [2] the target is T1, human EGFR(His672-Ala1210) (Homo sapiens, UniProt P00533).
T1 construct: a construct expressing human EGFR(His672-Ala1210); GST (N); purchased Cell Signaling Technologies; host or cells: baculovirus expression system
Description: EGFR kinase assay (HTScan EGF Receptor Kinase Assay Kit). The format is biochemical. The conditions noted are these: FIG. 1. The protocol: The ability of compounds to inhibit receptor kinase (EGFR) activity was assayed using HTScan™ EGF Receptor Kinase Assay Kits (Cell Signaling Technologies, Danvers, Mass.). […] The protein was purified by one-step affinity chromatography using glutathione-agarose.
Immediately transfer enzyme from −80° C. to ice. Allowed enzyme to thaw on ice. […] Returned immediately to ice. […] Incubated reaction plate at room temperature for 30 minutes. […] Added 100 μl/well primary antibody. Incubated at room temperature for 60 minutes. […] Added 100 μl/well diluted antibody. Incubated at room temperature for 30 minutes. […] Incubated at room temperature for 5 minutes.

Data set [3] can be described thus: pH of salt solution in 30% CAPTISOL
The format is physicochemical. The conditions noted are these: salt in 30% CAPTISOL
Description: Sodium, hydrochloride, citrate and tartrate salts of a test compound of Formula I were prepared in 30% CAPTISOL® solutions and were studied for the following:

The nature of data set [4]: Dilution study with D5W (precipitation, chemical stability). The data set is classed as physicochemical. The conditions noted are these: for Dilution with D5W: salt in 30% CAPTISOL; for Chemical stability in diluted solution: salt in 30% CAPTISOL diluted with D5W.

Counter-ions that a name gives are not always drawn. A value given as a limit tells only on which side of the number the result lay.

T1 sequence (P00533 672-1210): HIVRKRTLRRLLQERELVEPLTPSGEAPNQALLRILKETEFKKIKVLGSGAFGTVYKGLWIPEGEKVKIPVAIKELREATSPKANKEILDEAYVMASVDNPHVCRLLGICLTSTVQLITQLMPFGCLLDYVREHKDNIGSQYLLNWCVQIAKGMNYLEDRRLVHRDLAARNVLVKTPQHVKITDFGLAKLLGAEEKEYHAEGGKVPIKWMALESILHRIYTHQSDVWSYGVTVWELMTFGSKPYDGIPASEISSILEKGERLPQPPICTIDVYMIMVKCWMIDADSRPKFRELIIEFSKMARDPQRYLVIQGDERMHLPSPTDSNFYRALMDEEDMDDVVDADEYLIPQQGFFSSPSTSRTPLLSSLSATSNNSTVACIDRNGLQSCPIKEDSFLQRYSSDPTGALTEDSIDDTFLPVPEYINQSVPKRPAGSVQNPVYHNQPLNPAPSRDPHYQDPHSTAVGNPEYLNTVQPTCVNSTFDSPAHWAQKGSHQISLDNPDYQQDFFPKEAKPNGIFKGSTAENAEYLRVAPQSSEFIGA

As a reminder, the IC50 is the concentration that inhibits the measured activity by half. A high value points to weaker potency in that assay. On to `COc1cc2ncnc(Nc3ccc(F)c(Cl)c3)c2cc1OCCCCCCC(=O)NO` [Compound 6, 7-(4-(3-Chloro-4-fluorophenylamino)-7-methoxyquinazolin-6-yloxy)-N-hydroxyheptanamide], for which the half-maximal inhibitory concentration (IC50) in data set [1] is less than 0.1 µM. The “activity in HDAC enzyme assay compared with SAHA” value in data set [1] (FIG. 1) was “more active than erlotinib and SAHA”. Besides, the “activity in EGFR enzyme assay compared with erlotinib” value in data set [2] is “more active than erlotinib and SAHA”.
`C#Cc1cccc(Nc2ncnc3ccc(OCCCCCCC(=O)NO)cc23)c1` [Compound 24, 7-(4-(3-ethynylphenylamino)quinazolin-6-yloxy)-N-hydroxyheptanamide] returned a concentration for half-maximal inhibition (IC50) in data set [1] of less than 0.1 µM.
In the case of `COCCOc1cc2ncnc(Nc3ccc(F)c(Cl)c3)c2cc1OCCCCCCC(=O)NO` [Compound 30, 7-(4-(3-Chloro-4-fluorophenylamino)-7-(2-methoxyethoxy)quinazolin-6-yloxy)-N-hydroxyheptanamide], the half-maximal inhibitory concentration (IC50) in data set [1] is less than 0.1 µM.
`C#Cc1cccc(Nc2ncnc3cc(OCCOC)c(OCCCCCCC(=O)NO)cc23)c1` [Compound 36, 7-(4-(3-Ethynylphenylamino)-7-(2-methoxyethoxy)quinazolin-6-yloxy)-N-hydroxyheptanamide] returned an IC50 in data set [1] of less than 0.1 µM.
As for `COc1cc2ncnc(Nc3ccc(F)c(Cl)c3)c2cc1NC(=O)CCCC(=O)NO` [Compound 38, N^1-(4-(3-chloro-4-fluorophenylamino)-7-methoxyquinazolin-6-yl)-N^5-hydroxyglutaramide], in data set [1], the IC50 fell in the range of 1 to 10 µM.
The molecule `COc1cc2ncnc(Nc3ccc(F)c(Cl)c3)c2cc1NC(=O)CCCCCCC(=O)NO` [Compound 40, N^1-(4-(3-chloro-4-fluorophenylamino)-7-methoxyquinazolin-6-yl)-N^8-hydroxyoctanediamide] yielded an IC50 in data set [1] of less than 0.1 µM.
`C#Cc1cccc(Nc2ncnc3cc(OC)c(NC(=O)CCCC(=O)NO)cc23)c1` [Compound 42, N^1-(4-(3-ethynylphenylamino)-7-methoxyquinazolin-6-yl)-N^5-hydroxyglutaramide] returned an IC50 in data set [1] of 0.1 to 1 µM.
Same read-out and setting: then `C#Cc1cccc(Nc2ncnc3cc(OC)c(NC(=O)CCCCC(=O)NO)cc23)c1` [Compound 43, N^1-(4-(3-ethynylphenylamino)-7-methoxyquinazolin-6-yl)-N^6-hydroxyadipamide], with 0.1 to 1 µM.
In data set [1], `C#Cc1cccc(Nc2ncnc3cc(OC)c(NC(=O)CCCCCCC(=O)NO)cc23)c1` [Compound 44, N^1-(4-(3-ethynylphenylamino)-7-methoxyquinazolin-6-yl)-N^8-hydroxyoctanediamide] had an IC50 of less than 0.1 µM.
In data set [1], `Nc1cc(Br)ccc1NC(=O)COc1ccc2ncnc(Nc3ccc(F)c(Cl)c3)c2c1` [Compound 45] registered an IC50 of more than 10 µM.
In data set [1], `C[C@@H](Nc1ncnc2ccc(OCCCCCC(=O)NO)cc12)c1ccccc1` [Compound 50] displayed an IC50 of 0.1 to 1 µM.
In data set [1], `O=C(/C=C/c1ccc(OCCOc2ccc3ncnc(Nc4ccc(F)c(Cl)c4)c3c2)cc1)NO` [Compound 63] displayed an IC50 of 0.1 to 1 µM.
The same measure, in the same setting: in the case of `COc1cc2ncnc(Nc3ccc(F)c(Cl)c3)c2cc1OCCOc1ccc(/C=C/C(=O)NO)cc1` [Compound 66, (E)-3-(4-(2-(4-(3-chloro-4-fluorophenylamino)-7-methoxyquinazolin-6-yloxy)ethoxy)phenyl)-N-hydroxyacrylamide] it was 0.1 to 1 µM; in that of `COCCOc1cc2ncnc(Nc3ccc(F)c(Cl)c3)c2cc1NC(=O)CCCC(=O)NO` [Compound 68, N^1-(4-(3-chloro-4-fluorophenylamino)-7-(2-methoxyethoxy)quinazolin-6-yl)-N^5-hydroxyglutaramide], 1 to 10 µM.
`COCCOc1cc2ncnc(Nc3ccc(F)c(Cl)c3)c2cc1NC(=O)CCCCC(=O)NO` [Compound 69, N^1-(4-(3-chloro-4-fluorophenylamino)-7-(2-methoxyethoxy)quinazolin-6-yl)-N^6-hydroxyadipamide] came in with an IC50 in data set [1] of 0.1 to 1 µM.
Molecule `C#Cc1cc(Nc2ncnc3cc(OC)c(OCCCCCCC(=O)NO)cc23)ccc1F` [Compound 75, 7-(4-(3-ethynyl-4-fluorophenylamino)-7-methoxyquinazolin-6-yloxy)-N-hydroxyheptanamide] showed an IC50 in data set [1] of less than 0.1 µM.
In data set [1], `C#Cc1cc(Nc2ncnc3cc(OCCOC)c(OCCCCCCC(=O)NO)cc23)ccc1F` [Compound 76] showed a half-maximal inhibitory concentration (IC50) of less than 0.1 µM.
Turning to `COc1cc2ncnc(N[C@H](C)c3ccccc3)c2cc1OCCCCCC(=O)NO` [Compound 77, (R)—N-hydroxy-6-(7-methoxy-4-(1-phenylethylamino)quinazolin-6-yloxy)-hexanamide], in data set [1], the concentration for half-maximal inhibition (IC50) was less than 0.1 µM.
Regarding `C[C@@H](Nc1ncnc2ccc(OCCCCCC(=O)NO)cc12)c1ccccc1` [Compound 78, (R)—N-hydroxy-6-(4-(1-phenylethylamino)-quinazolin-6-yloxy)hexanamide], the IC50 in data set [1] is less than 0.1 µM.
The molecule `COc1cc2ncnc(N[C@H](C)c3ccccc3)c2cc1OCCCCCCC(=O)NO` [Compound 79, (R)—N-hydroxy-7-(7-methoxy-4-(1-phenylethylamino)quinazolin-6-yloxy)heptanamide] displayed a concentration for half-maximal inhibition (IC50) in data set [1] of less than 0.1 µM.
Take `COc1cc2ncnc(N[C@@H](C)c3ccccc3)c2cc1OCCCCCCC(=O)NO` [Compound 80, (S)—N-hydroxy-7-(7-methoxy-4-(1-phenylethylamino)quinazolin-6-yloxy) heptanamide]: the half-maximal inhibitory concentration (IC50) in data set [1] was less than 0.1 µM.
The molecule `COc1cc2ncnc(N[C@H](C)c3ccc(F)cc3)c2cc1OCCCCCCC(=O)NO` [Compound 81, (R)-7-(4-(1-(4-fluorophenyl)ethylamino)-7-methoxyquinazolin-6-yloxy)-N-hydroxyheptanamide] registered an IC50 in data set [1] of 0.1 to 1 µM.
As for `COc1cc2ncnc(N[C@H](C)c3ccc(Cl)cc3)c2cc1OCCCCCCC(=O)NO` [Compound 82, (R)-7-(4-(1-(4-Chlorophenyl)ethylamino)-7-methoxyquinazolin-6-yloxy)-N-hydroxyheptanamide], the IC50 in data set [1] lay in the range of 0.1 to 1 µM.
On the same count and under the same terms, in the case of `COc1ccc([C@@H](C)Nc2ncnc3cc(OC)c(OCCCCCCC(=O)NO)cc23)cc1` [Compound 83, (R)—N-Hydroxy-7-(7-methoxy-4-(1-(4-methoxyphenyl)ethylamino)-quinazolin-6-yloxy)-heptanamide] it was less than 0.1 µM; in that of `COc1cc2ncnc(NCCc3ccccc3)c2cc1OCCCCCCC(=O)NO` [Compound 84], less than 0.1 µM.
In data set [1], `COc1cc2ncnc(NCc3ccccc3)c2cc1OCCCCCCC(=O)NO` [Compound 85, 7-(4-(Benzylamino)-7-methoxyquinazolin-6-yloxy)-N-hydroxyheptanamide] registered a half-maximal inhibitory concentration (IC50) of less than 0.1 µM.
As for `COc1cc2ncnc(NCc3ccc(F)cc3)c2cc1OCCCCCCC(=O)NO` [Compound 86, 7-(4-(4-fluorobenzylamino)-7-methoxyquinazolin-6-yloxy)-N-hydroxyheptanamide], in data set [1], the concentration for half-maximal inhibition (IC50) was less than 0.1 µM.
`COc1cc2ncnc(NCc3ccc(F)c(F)c3)c2cc1OCCCCCCC(=O)NO` [Compound 87, 7-(4-(3,4-difluorobenzylamino)-7-methoxyquinazolin-6-yloxy)-N-hydroxyheptanamide]: in data set [1], the IC50 is less than 0.1 µM.
Take `COc1cc2ncnc(NCc3ccc(F)c(Cl)c3)c2cc1OCCCCCCC(=O)NO` [Compound 88, 7-(4-(3-chloro-4-fluorobenzylamino)-7-methoxyquinazolin-6-yloxy)-N-hydroxyheptanamide]: in data set [1], the IC50 is less than 0.1 µM.
With `COc1cc2ncnc(NCc3cccc(Br)c3)c2cc1OCCCCCCC(=O)NO` [Compound 89, 7-(4-(3-bromobenzylamino)-7-methoxyquinazolin-6-yloxy)-N-hydroxyheptanamide], in data set [1], the IC50 is less than 0.1 µM.
`C#Cc1cccc(CNc2ncnc3cc(OC)c(OCCCCCCC(=O)NO)cc23)c1` [Compound 90] had an IC50 in data set [1] of less than 0.1 µM.
Molecule `COc1cc2ncnc(Nc3ccc(F)c(Cl)c3)c2cc1OCCOc1ccc(CC(=O)NO)cc1` [Compound 91] registered an IC50 in data set [1] of 1 to 10 µM.
`COc1cc2ncnc(Nc3ccc(F)c(Cl)c3)c2cc1NC(=O)Nc1ccc(C(=O)NO)cc1` [Compound 93] showed an IC50 in data set [1] of 1 to 10 µM.
Molecule `COc1cc2ncnc(Nc3ccc(F)c(Cl)c3)c2cc1OCCCCCCC(=O)N(C)O` [Compound 94] returned a concentration for half-maximal inhibition (IC50) in data set [1] of more than 10 µM.
As to `C#Cc1cccc(Nc2ncnc3cc(OC)c(OCCCCCCC(=O)NO)cc23)c1` [HCl], the pH in data set [3] is recorded as 2-3. In data set [4], the “Dilution with D5W” value is listed as more than 10x and the “Chemical stability in diluted solution” value was more than 12 h.
For `C#Cc1cccc(Nc2ncnc3cc(OC)c(OCCCCCCC(=O)NO)cc23)c1` [Sodium], in that order: 10-11, more than 10x and more than 12 h.
As to Citric Acid, in data set [4], the “Dilution with D5W” value is on record as more than 10x and the “Chemical stability in diluted solution” value is listed as more than 12 h.
